8 compounds from ChEMBL document CHEMBL1201862, “PubChem BioAssay data set” (2004) can be followed below.

Test systems include A549; NCI-H522; OVCAR-3; OVCAR-5; HCC 2998; OVCAR-4; SF-268; PC-3; NCI-H460; SN12C; HOP-62; DU-145; EKVX; MDA-N; MOLT-4; SR; MCF7; TK-10; MDA-MB-435.
Holding throughout (assay): inhibition of tumour cell growth, NCI panel, 48 h

Each structure is given as a SMILES string.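 Assay format: 96-well plates, 48-hour exposure. GI50 is the concentration that inhibits growth by half.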 Active and inactive are the calls of the source. No stated cut-off is given here; in the data, active = GI50 up to about 1.1 µM and inactive = higher.

For `Cc1cccc(/C=N/NC(=S)N2CCCC2)n1`, the GI50 is 0.514 µM (active) in the assay with A549; 0.0458 µM (active) in the assay with NCI-H522; 0.0255 µM (active) with OVCAR-3; 0.132 µM (active) with OVCAR-5; 0.78 µM (active) in the assay on HCC 2998; 0.195 µM (active) in the assay on OVCAR-4. Also, the GI50 with SF-268 was 0.251 µM (active); with PC-3 it was 0.346 µM (active); with NCI-H460, 0.337 µM (active); in the assay with SN12C, 0.247 µM (active); in the assay with HOP-62 it was 0.209 µM (active); with DU-145, 0.373 µM (active). For the same compound, the GI50 is 0.304 µM (active) in the assay with EKVX; 0.417 µM (active) in the assay with MDA-N; 0.0687 µM (active) in the assay on MOLT-4; 0.0509 µM (active) in the assay on SR; 2.91 µM (inactive) in the assay with MCF7; 0.177 µM (active) with TK-10. Besides, the GI50 in the assay with MDA-MB-435 was 0.493 µM (active).

Take `CCCN(CCC)C1CCc2c(ccc3cc[nH]c23)C1` (configuration not stated): the GI50 is > 100 µM (inactive) with A549; > 100 µM (inactive) with NCI-H522; 61.4 µM (inactive) with OVCAR-3; > 100 µM (inactive) with OVCAR-5; 23 µM (inactive) in the assay on HCC 2998; > 100 µM (inactive) with OVCAR-4. In addition, the GI50 was 94.2 µM (inactive) with SF-268; 35 µM (inactive) in the assay on PC-3; 72.3 µM (inactive) in the assay on NCI-H460; > 100 µM (inactive) with SN12C; > 100 µM (inactive) in the assay on HOP-62; > 100 µM (inactive) with DU-145. For the same compound, the GI50 with EKVX was > 100 µM (inactive); in the assay with MDA-N it was > 100 µM (inactive); in the assay with MOLT-4, 25.2 µM (inactive); in the assay with SR, 22.9 µM (inactive); with MCF7, 77.3 µM (inactive); with TK-10, > 100 µM (inactive). Further, the GI50 with MDA-MB-435 is 89.3 µM (inactive).

For the compound `COc1ccc2nc3cc(Cl)ccc3c(NCCCCCC(=O)NC(COc3cnc4c(ccc5cccnc54)c3)COc3cnc4c(ccc5cccnc54)c3)c2c1`, the GI50 with A549 is 29.1 µM (inactive); in the assay on NCI-H522, 26.9 µM (inactive); in the assay on OVCAR-3, 4.02 µM (inactive); in the assay with OVCAR-5 it was 24.1 µM (inactive); with HCC 2998 it was 12.6 µM (inactive); with OVCAR-4, 7.28 µM (inactive). Further, the GI50 with SF-268 was 12.8 µM (inactive); with PC-3, 13.9 µM (inactive); in the assay with NCI-H460 it was 5.47 µM (inactive); in the assay on SN12C, 22.9 µM (inactive); with HOP-62 it was 15.7 µM (inactive); in the assay with DU-145, 11.3 µM (inactive). The GI50 in the assay with EKVX is 22.8 µM (inactive); in the assay with MDA-N, 19 µM (inactive); in the assay with MOLT-4, 1.65 µM (inactive); with SR it was 2.76 µM (inactive); in the assay with MCF7, 5.04 µM (inactive); in the assay with TK-10, 27.5 µM (inactive). In addition, in the assay on MDA-MB-435, the GI50 is 18.5 µM (inactive).

For `COc1ccc2[nH]c3c(c2c1)CCc1c(OC)cccc1-3`, the GI50 in the assay with A549 was > 100 µM (inactive); with NCI-H522 it was 87.1 µM (inactive); in the assay on OVCAR-3, > 100 µM (inactive); in the assay with OVCAR-5, > 100 µM (inactive); in the assay with HCC 2998 it was > 100 µM (inactive); in the assay with OVCAR-4, 40.3 µM (inactive). Further, the GI50 with SF-268 was > 100 µM (inactive); in the assay with PC-3, > 100 µM (inactive); with NCI-H460, > 100 µM (inactive); with SN12C, > 100 µM (inactive); with HOP-62, 53.8 µM (inactive); in the assay on DU-145, > 100 µM (inactive). In addition, the GI50 is > 100 µM (inactive) in the assay on EKVX; > 100 µM (inactive) in the assay on MDA-N; 29.9 µM (inactive) with MOLT-4; > 100 µM (inactive) in the assay with SR; > 100 µM (inactive) in the assay with MCF7; > 100 µM (inactive) in the assay with TK-10. In addition, in the assay with MDA-MB-435, the GI50 is > 100 µM (inactive).

Take `CC(C)=CCN(N=O)c1ncnc2[nH]cnc12`: the GI50 in the assay with A549 is > 100 µM (inactive); in the assay with NCI-H522 it was > 100 µM (inactive); in the assay on OVCAR-3 it was > 100 µM (inactive); in the assay with OVCAR-5, > 100 µM (inactive); in the assay with HCC 2998 it was > 100 µM (inactive); in the assay on OVCAR-4 it was 89.5 µM (inactive). The GI50 with SF-268 is > 100 µM (inactive); in the assay on PC-3 it was 94.6 µM (inactive); with NCI-H460, > 100 µM (inactive); in the assay with SN12C, > 100 µM (inactive); in the assay on HOP-62, > 100 µM (inactive); with DU-145, > 100 µM (inactive). Further, the GI50 in the assay with EKVX is > 100 µM (inactive); with MDA-N, > 100 µM (inactive); with MOLT-4 it was > 100 µM (inactive); in the assay with SR it was 75.3 µM (inactive); in the assay on MCF7, > 100 µM (inactive); in the assay on TK-10 it was > 100 µM (inactive). Moreover, the GI50 in the assay on MDA-MB-435 is > 100 µM (inactive).

Turning to `C=C(Cl)C(Cl)(CBr)CCCC(C)C` (configuration not stated), the GI50 was 21.4 µM (inactive) in the assay on A549; > 100 µM (inactive) in the assay on NCI-H522; 6.89 µM (inactive) with OVCAR-3; 19.9 µM (inactive) in the assay on OVCAR-5; 19.6 µM (inactive) with HCC 2998; 33 µM (inactive) in the assay on OVCAR-4. Besides, the GI50 in the assay on SF-268 is 15.1 µM (inactive); in the assay on PC-3, 13.2 µM (inactive); with NCI-H460, 15.7 µM (inactive); in the assay on SN12C it was > 100 µM (inactive); with HOP-62, 13.7 µM (inactive); in the assay on DU-145, 11.5 µM (inactive). Also, the GI50 with EKVX was 18.3 µM (inactive); with MDA-N it was 22 µM (inactive); in the assay on MOLT-4, > 100 µM (inactive); in the assay with SR, > 75.7 µM (inactive); with MCF7, 12.4 µM (inactive); in the assay on TK-10, 16.4 µM (inactive). In addition, in the assay on MDA-MB-435, the GI50 is 37.5 µM (inactive).

`FC(F)(F)c1nc2ccc(SSc3ccc4nc(C(F)(F)F)[nH]c4c3)cc2[nH]1`: the GI50 is 42.3 µM (inactive) in the assay with A549; 49 µM (inactive) in the assay with NCI-H522; 36.6 µM (inactive) with OVCAR-3; > 100 µM (inactive) with OVCAR-5; 38.3 µM (inactive) with HCC 2998; 61.5 µM (inactive) in the assay on OVCAR-4. Further, the GI50 with SF-268 was > 10 µM (inactive); with PC-3, 36.6 µM (inactive); with NCI-H460, 24.5 µM (inactive); in the assay with SN12C it was 46.7 µM (inactive); in the assay on HOP-62 it was 31.6 µM (inactive); in the assay with DU-145, > 10 µM (inactive). Besides, the GI50 in the assay on EKVX is > 10 µM (inactive); with MDA-N it was 80.5 µM (inactive); in the assay on MOLT-4, 27.3 µM (inactive); in the assay with SR, 30.7 µM (inactive); with MCF7, 35.7 µM (inactive); in the assay on TK-10, 79.3 µM (inactive). The GI50 with MDA-MB-435 is 40.6 µM (inactive).

Regarding `Cc1ccc2c(O)cc(-c3ccc(C)s3)nc2n1`, the GI50 in the assay on A549 was 0.531 µM (active); in the assay on NCI-H522 it was 0.219 µM (active); with OVCAR-3 it was 0.34 µM (active); in the assay on OVCAR-5, 1.91 µM (inactive); with HCC 2998, 0.805 µM (active); with OVCAR-4, 12.7 µM (inactive). Further, the GI50 in the assay on SF-268 is 2.34 µM (inactive); in the assay on PC-3 it was 0.234 µM (active); in the assay with NCI-H460, 0.456 µM (active); with SN12C, 0.556 µM (active); in the assay with HOP-62, 1.07 µM (active); with DU-145, 0.993 µM (active). Also, the GI50 in the assay on EKVX is 2.95 µM (inactive); with MDA-N, 0.0213 µM (active); with MOLT-4, 0.624 µM (active); with SR it was 0.0893 µM (active); in the assay with MCF7, 0.27 µM (active); in the assay with TK-10, 19.3 µM (inactive). Moreover, the GI50 with MDA-MB-435 is 0.0264 µM (active).
